The test system of one series is rabbit BBMVs. As to the kind of experiment: Sterol uptake inhibition using mixed bile salt micelles as donors. The format is biochemical. As to conditions: 1.56 μM human apo A-1 or 1.98 μM fr.28-PBE94; 5 mM taurocholate, 0.6 mM oleic acid, 2 μM cholesterol; 10 min at 25° C. The method, then:
Since bile salt micelles are the most important lipid carriers in the small intestine, it is relevant to measure sterol uptake inhibition using mixed bile salt micelles as the donor. Donor micelles made of 50 mM taurocholate, 6 mM oleic acid and 20 μM radiolabelled cholesterol were prepared as follows: the lipids were mixed at these concentrations in 2:1 chloroform:methanol and the organic solvent was removed by rotary evaporation. The resulting lipid film was dried under high vacuum for at least 1 hour. The dried film was dispersed in the appropriate amount of Tris/NaCl to yield the desired micellar concentration. Acceptor rabbit BBMVs, prepared as described in Example 2, were mixed with either 1.56 μM human apo A-1 or 1.98 μM fr.28-PBE94. Donor mixed micelles were added to the acceptor/inhibitor dispersion to a final concentration of 5 mM taurocholate, 0.6 mM oleic acid and 2 μM radiolabelled cholesterol and the mixture incubated for 10 min at 25° C. […] Radioactivities in both pellet and supernatant were measured and results evaluated as described in Example 2; incubation with apo A-1 yielded 12% of the inhibitory activity measured at the same inhibitor concentration using SUVs as donor, and incubation with fr.28-PBE94 yielded 23% of the inhibitory activity measured at the same inhibitor concentration using SUVs as donor.

Series [1] has as its system brush border membrane vesicles (BBMV). Nature of the series: IC50 of cholesteryl oleate uptake at the brush border membrane (Example 6). It is filed as biochemical, rabbit. As to conditions: donor 0.1 mg total lipid/ml, acceptor 2 mg protein/ml; 20 min at 25° C. The method, then:
An appropriate amount of inhibitor dissolved in 84.5 μl buffer (0.05 M Tris pH 7.4, 0.15 M NaCl) is mixed in an Eppendorf tube at time zero with 5 μl of a dispersion of donor and 10.5 μl of a dispersion of acceptor (i.e. brush border membrane vesicles (BBMV)) in the same buffer. The final concentration of the donor vesicles was 0.1 mg total lipid/ml, that of the acceptor was 2 mg protein/ml. The resulting mixture was incubated for 20 min at 25° C., and the reaction was stopped by adding 60 μl of the incubation medium to 120 μl ice-cold bufferin an airfuge tube. The diluted dispersion was immediately centrifuiaed in the airfuge at […] for 2 min. at 4° C. to separate donor vesicles from BBMV. Two 60 μl aliquots of the donor (=supernatant) were counted in a Beckman LS-7500 liquid scintillating counter to determine the radioactivity remaining in tbe donor.
Small unilamellar egg phosphatidycholine (PC) vesicles containing 1 mol % of cholesterol oleate and a trace amount of ^3H-cholesterol oleyl ether were made by dissolving the appropriate amounts of the lipids in CHCl3/CH3OH, (2:1, by vol.), taking the solution to dryness on a rotary evaporator and drying the residue in vacuo. The dried lipid film was dispersed in the appropriate volume of buffer by hand-shaking. The lipid dispersion was subjected to tip sonication as described in Brunner et al, J. Biol. Chem. 253 7538-7546 (1978). The resulting donor dispersion in buffer was centrifuged in the airfuge at 100000 g for 2 min at […]. Only the top 80% of the donor dispersion after centrifugation was used in the lipid uptake experiment.
BBMV were prepared from frozen rabbit small intestine according to Hauser et al (Biochim. Biophys. Acta 602 567-577 (1980)). Prior to use in the uptake experiment determining IC50 values the BBMV were washed to remove any free protein liberated from the BBM. To this end the BBMV dispersion was diluted with buffer 1:1 in an airfuge tube, and the diluted dispersion was centrifuged in the airfuga at 100000 g for 2 min at […]. The supernatant was is carefully decanted, the pellet was resuspended in buffer to the original volume of the BBMV dispersion, and the dispersion was homogenized. […]

Series [2] has as its system small intestine of Sprague-Dawly rats. Nature of the series: In vivo cholesterol absorption in the small intestine of rats. As to conditions: ApoA-1 added to the diet. An excerpt: The biological relevance of the inhibitory effect observed in vitro is confirmed by an in vivo experiment showing that cholesterol absorption in the small intestine of Sprague-Dawly rats can be inhibited by the amphipathic principle by more than 80%. ApoA-1 added to the diet was used as the inhibitor, because this protein could be purified from human serum in sufficient quantity. Bases or the experimental evidence presented we ppropose that the inhibitory effect on cholesterol uptake is not restricted to particular amphipathic molecules. It is likely that the chemical nature of the amphipathic compound is of secondary importance and that the geometry and the polarity of the compound are the decisive determinants. The results presented here have important implications since amphipathic molecules belonging to any class of biological compounds such as lipids, proteins or carbohydrates might inhibit cholesterol uptake by the brush border membrane.

For series [3] the following is noted: taken from Chapman (1986), for comparison; cited from earlier work.
The subject of another series is rabbit BBMV. Nature of the series: Dose response of cholesteryl oleate uptake from egg PC SUVs by rabbit BBMV (FIG. 4B). To be noted: donor 0.05 mg/ml total lipid, acceptor 1.7 mg protein/ml, 20 min at 25° C., curve fits of FIG. 4B. It is filed as biochemical. The protocol:
Small unilamellar vesicles of egg phosphatidylcholine containing 1 mol % cholesteryl oleate and a trace amount of (1,2-^3H2 (N)]-cholesteryl oleyl ether (37 Ci/mmol, from Amersham, UK) as the donor were made as described in Example 1 and BBMVs as the acceptor were prepared from rabbit small intestine (see Example 1). Donor and acceptor both dispersed in Tris/NaCl buffer (0.05 M Tris HCl pH 7.4, 0.15 M NaCl, 0.02% NaN3) and a solution of human apo A-1 or sheep HDL in the same buffer were mixed at time zero (total volume: 0.1 ml) so that the final concentrations of donor and acceptor were 0.05 mg/ml total lipid and 1.7 mg protein/ml, respectively. After incubation of the suspension of donor and acceptor in the presence of inhibitor for 20 min. at 25° C., the reaction was stopped by dilution with 2 vol. of Tris/NaCl buffer. Donor and acceptor were separated by centrifugation in the airfuge at 115,000 g for 2 min. at […]., and the radioactivities in the supernatant containing donor vesicles and in the pellet containing BBMVs were determined in a BECKMAN™ LS 7500 scintillation counter. […]
Experimental conditions were as described for FIG. 4A. The cholesterol absorption activity of BBMVs measured in the absence of inhibition was taken as 100% and the loss in activity observed in the presence of inhibitor is expressed as %. […]

Series [4] is described as follows: Denaturation by 10% TCA or boiling/chilling: protein remaining in supernatant. The format is physicochemical. An excerpt:
Since the characterisation of sheep apo A-1 has not been reported yet, the physical characteristics of human and rabbit apo A-1 are reported for comparison (Chapman, Academic Press, Inc. San Diego, New York, Boston, London, Sydney, Tokyo. Toronto 70-143 1986)). Fr.28-PBE94 was subjected to N-terminal amino acid analysis. The first 29 amino acids of fr.28-PBE94 were 79.3% identical with rat apo A-1, 69.0% with rabbit apo A-1, 86.2% with bovine apo A-1 and 65.0% with human apo A-1. Fr.28-PBE94 cross-reacted with mouse monoclonal anti-human apo A-1 antibodies in Western blotting experiments. […] This is the floating density of high-density lipoproteins. After subjecting fr.28-PBE94 to the guanidine HCl treatment according to Nichols et al. (Nichols et al., Biochimica et Biophysica Acta 446 226-239 (1976)), fr.28-PBE94 was delipidated, showing the same behaviour as human apo A-1. […] Denatured proteins were removed by centrifugation, and protein and inhibitory activity remaining in the supernatant were determined (Table 4).

Turning to “human apo A-1: human apolipoprotein A-1, prepared from human HDL by delipidation and ion exchange chromatography”, in the series on rabbit BBMVs, the “inhibitory activity with mixed bile salt micelles as donor, as % of that measured at the same inhibitor concentration using SUVs as donor” value is 12%. In series [1], the IC50 turned out to be 0.5 ± 0.1 µM and the “IC50 (μg/mL) of cholesteryl oleate uptake at the brush border membrane” value is 14 ± 3 µg/mL. The “inhibition of cholesterol absorption in the small intestine” value in series [2] is recorded as “more than 80%”. The isoelectric point in series [3] is listed as 5.52. In addition, the “IC-50” value in the series with rabbit BBMV was determined as 25 µg/mL. Moreover, the “protein (%) remaining in the supernatant” value in series [4] (after TCA precipitation (10% TCA)) is 0%. In addition, the “protein (%) remaining in the supernatant” value in series [4] (after boiling/chilling (4 cycles, 5 min each)) is given as 27%.

(Values after US20010005714A1, “AMPHIPATHIC MOLECULES AS CHOLESTEROL AND OTHER LIPID UPTAKE INHIBITORS” (priority 1996, published 2001).)
